In ChEMBL document CHEMBL5550204, “Discovery of ZJCK-6-46: A Potent, Selective, and Orally Available Dual-Specificity Tyrosine Phosphorylation-Regulated Kinase 1A Inhibitor for the Treatment of Alzheimer's Disease” (J Med Chem, 2024):
Active and inactive are the calls of the source. The rule behind the calls is not given here.

How the values were obtained:
[1] = Acute toxicity in C57BL/6 mouse assessed as histopathological change in liver at 500 mg/kg,po observed after 14 days by hematoxylin-eosin staining based analysis; assay type: organism-based; details: in vivo, 336 h, time 14 day
HEK-293T [2] = experiment: Cytotoxicity against human HEK293T cells expressing human Tau P301L mutant at 0.15625 to 10 uM incubated for 24 hrs by MTT assay; assay type: toxicity, cell-based; details: dose 0.15625-10 µM
[3] = Acute toxicity in C57BL/6 mouse assessed as change in body weight at 500 mg/kg,po observed after 14 days; assay type: organism-based; details: in vivo, 336 h, time 14 day
HEK-293T [4] = experiment: Cytotoxicity against human HEK293T cells expressing human Tau P301L mutant at 20 uM incubated for 24 hrs by MTT assay; assay type: toxicity, cell-based
[5] = Drug concentration in Sprague-Dawley rat plasma at 10 mg/kg,po measured after 4 hrs by LC-MS/MS analysis; assay type: ADME, organism-based
[6] = Toxicity in okadaic acid-induced cognitive impairment C57BL/6 mouse assessed as change in serum TBIL level at 10 to 30 mg/kg,po once daily for 2 weeks; assay type: organism-based; details: in vivo, 336 h, dose 10-30 mg/kg
[7] = Acute toxicity in C57BL/6 mouse assessed as change in liver weight at 500 mg/kg,po observed after 14 days; assay type: organism-based; details: in vivo, 336 h, time 14 day
SH-SY5Y [8] = experiment: Cytotoxicity against human SH-SY5Y cells expressing human Tau P301L mutant at 20 uM incubated for 24 hrs by MTT assay; assay type: functional, cell-based
CYP3A4 = CYP3A4 (Homo sapiens, UniProt P08684); experiment: Inhibition of CYP3A4 in human liver microsomes using testosterone as substrate at 10 uM preincubated for 10 mins followed by NADPH addition and measured after 40 mins by LC-MS/MS analysis relative to control; assay type: ADME, Microsome; details: probe testosterone, time 50 min
Mus musculus [9] = experiment: Antialzheimer activity in okadaic acid-induced cognitive impairment C57BL/6 mouse assessed as reduction in nerve damage in hippocampal DG region at 10 to 30 mg/kg,po once daily for 2 weeks by Nissl staining based microscopy; assay type: functional, organism-based; details: dose 10-30 mg/kg
Mus musculus [10] = experiment: Antialzheimer activity in okadaic acid-induced cognitive impairment C57BL/6 mouse assessed as downregulation of Tau phosphorylation at Thr212 residue in hippocampal DG region at 10 to 30 mg/kg,po once daily for 2 weeks by immunohistochemical staining analysis; assay type: functional, organism-based; details: dose 10-30 mg/kg
[11] = Drug concentration in Sprague-Dawley rat plasma at 10 mg/kg,po measured after 6 hrs by LC-MS/MS analysis; assay type: ADME, organism-based
Mus musculus [12] = experiment: Antialzheimer activity in okadaic acid-induced cognitive impairment C57BL/6 mouse assessed as increase in cognitive function at 10 to 30 mg/kg,po measured after 7 days by Morris water maze test; assay type: functional, organism-based; details: dose 10-30 mg/kg, time 7.0 day
[13] = target: T1, Dual specificity protein kinase CLK3 (Homo sapiens, UniProt P49761); experiment: Inhibition of CLK3 (unknown origin) preincubated with enzyme for 10 mins followed by substrate and ATP addition measured after 60 mins by ADP-Glo reagent based assay
Target sequence in this assay (P49761 whole entry): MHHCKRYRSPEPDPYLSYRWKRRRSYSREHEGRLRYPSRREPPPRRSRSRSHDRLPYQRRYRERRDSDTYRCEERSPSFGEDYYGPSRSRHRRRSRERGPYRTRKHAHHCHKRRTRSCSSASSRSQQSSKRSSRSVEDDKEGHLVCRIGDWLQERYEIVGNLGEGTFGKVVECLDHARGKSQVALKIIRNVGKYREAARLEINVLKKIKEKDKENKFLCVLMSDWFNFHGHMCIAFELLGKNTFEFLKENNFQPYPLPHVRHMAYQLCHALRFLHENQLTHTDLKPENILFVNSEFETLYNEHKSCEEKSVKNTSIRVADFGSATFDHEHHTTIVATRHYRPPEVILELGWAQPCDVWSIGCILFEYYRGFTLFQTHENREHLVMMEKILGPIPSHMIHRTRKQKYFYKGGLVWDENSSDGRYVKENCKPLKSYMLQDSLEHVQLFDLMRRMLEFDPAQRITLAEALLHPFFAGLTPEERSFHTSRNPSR

[14] = target: Dual specificity protein kinase CLK1 (Homo sapiens, UniProt P49759); experiment: Inhibition of CLK1 (unknown origin) preincubated with enzyme for 10 mins followed by substrate and ATP addition measured after 60 mins by ADP-Glo reagent based assay
[15] = Drug concentration in Sprague-Dawley rat plasma at 10 mg/kg,po measured after 2 hrs by LC-MS/MS analysis; assay type: ADME, organism-based
[16] = Toxicity in okadaic acid-induced cognitive impairment C57BL/6 mouse assessed as change in serum GSH level at 10 to 30 mg/kg,po once daily for 2 weeks; assay type: organism-based; details: in vivo, 336 h, dose 10-30 mg/kg
[17] = MRT (0 to infinity) in Sprague-Dawley rat at 2 mg/kg,iv measured upto 24 hrs by LC-MS/MS analysis; assay type: ADME, organism-based; details: in vivo
Cytochrome P450 2C19 = Cytochrome P450 2C19 (Homo sapiens, UniProt P33261); experiment: Inhibition of CYP2C19 in human liver microsomes using mephenytoin as substrate preincubated for 10 mins followed by NADPH addition and measured after 40 mins by LC-MS/MS analysis; assay type: ADME, Microsome
Mus musculus [18] = experiment: Antialzheimer activity in okadaic acid-induced cognitive impairment C57BL/6 mouse assessed as reduction in nerve damage in hippocampal CA1 region at 10 to 30 mg/kg,po once daily for 2 weeks by Nissl staining based microscopy; assay type: functional, organism-based; details: dose 10-30 mg/kg
CYP2D6 = CYP2D6 (Homo sapiens, UniProt P10635); experiment: Inhibition of CYP2D6 in human liver microsomes using dextromethorphan as substrate at 10 uM preincubated for 10 mins followed by NADPH addition and measured after 40 mins by LC-MS/MS analysis relative to control; assay type: ADME, Microsome; details: probe dextromethorphan, time 50 min
[19] = target: Dual specificity tyrosine-phosphorylation-regulated kinase 1B (Homo sapiens, UniProt Q9Y463); experiment: Inhibition of DYRK1B (unknown origin) preincubated with enzyme for 10 mins followed by substrate and ATP addition measured after 60 mins by ADP-Glo reagent based assay
[20] = target: Dual specificity tyrosine-phosphorylation-regulated kinase 3 (Homo sapiens) (UniProt O43781); experiment: Inhibition of DYRK3 (unknown origin) at 1 uM preincubated with enzyme for 10 mins followed by substrate and ATP addition measured after 60 mins by ADP-Glo reagent based assay relative to control; details: time 70.0 min
SH-SY5Y [21] = experiment: Cytotoxicity against human SH-SY5Y cells expressing human Tau P301L mutant at 0.15625 to 10 uM incubated for 24 hrs by MTT assay; assay type: functional, cell-based; details: dose 0.15625-10 µM
[22] = Toxicity in okadaic acid-induced cognitive impairment C57BL/6 mouse assessed as change in serum BUN level at 10 to 30 mg/kg,po once daily for 2 weeks; assay type: organism-based; details: in vivo, 336 h, dose 10-30 mg/kg
[23] = Half life in Sprague-Dawley rat at 2 mg/kg,iv measured upto 24 hrs by LC-MS/MS analysis; assay type: ADME, organism-based; details: in vivo
[24] = Plasma protein binding in human assessed as bound fraction at 1 uM incubated for 5 hrs by LC-MS/MS analysis; assay type: ADME, cell-free; details: read-out: PPB (converted)
[25] = Acute toxicity in C57BL/6 mouse assessed as histopathological change in kidney at 500 mg/kg,po observed after 14 days by hematoxylin-eosin staining based analysis; assay type: organism-based; details: in vivo, 336 h, time 14 day
[26] = Apparent volume of distribution in Sprague-Dawley rat at 2 mg/kg,iv measured upto 24 hrs by LC-MS/MS analysis; assay type: ADME, organism-based; details: in vivo, read-out: Vz
[27] = target: T1, Dual specificity protein kinase CLK3; experiment: Inhibition of CLK3 (unknown origin) at 1 uM preincubated with enzyme for 10 mins followed by substrate and ATP addition measured after 60 mins by ADP-Glo reagent based assay relative to control; details: time 70.0 min
Target sequence in this assay (P49761 whole entry, looked up): as the sequence (P49761 whole entry) above

[28] = Toxicity in okadaic acid-induced cognitive impairment C57BL/6 mouse assessed as change in body weight at 10 to 30 mg/kg,po once daily for 2 weeks; assay type: organism-based; details: in vivo, 336 h, dose 10-30 mg/kg
[29] = MRT (0 to infinity) in Sprague-Dawley rat at 10 mg/kg,po measured upto 24 hrs by LC-MS/MS analysis; assay type: ADME, organism-based; details: in vivo
CYP1A2 = CYP1A2 (Homo sapiens, UniProt P05177); experiment: Inhibition of CYP1A2 in human liver microsomes using phenacetin as substrate at 10 uM preincubated for 10 mins followed by NADPH addition and measured after 40 mins by LC-MS/MS analysis relative to control; assay type: ADME, Microsome; details: probe phenacetin, time 50 min
Sequence of CYP1A2 (P05177 whole entry): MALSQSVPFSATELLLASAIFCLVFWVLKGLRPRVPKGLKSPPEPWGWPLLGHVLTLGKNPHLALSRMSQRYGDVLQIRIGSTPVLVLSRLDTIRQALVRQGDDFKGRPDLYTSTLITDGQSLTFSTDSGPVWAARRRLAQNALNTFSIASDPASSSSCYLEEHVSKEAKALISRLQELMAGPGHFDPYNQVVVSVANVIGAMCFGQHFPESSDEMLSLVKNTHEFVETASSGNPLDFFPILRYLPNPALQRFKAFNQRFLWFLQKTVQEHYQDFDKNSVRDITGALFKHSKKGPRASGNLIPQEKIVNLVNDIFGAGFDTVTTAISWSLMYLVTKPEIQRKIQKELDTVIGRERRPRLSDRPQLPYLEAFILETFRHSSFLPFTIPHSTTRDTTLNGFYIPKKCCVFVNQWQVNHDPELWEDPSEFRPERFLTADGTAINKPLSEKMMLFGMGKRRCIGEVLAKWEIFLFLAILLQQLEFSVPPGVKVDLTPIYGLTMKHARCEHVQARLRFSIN

Sequence of Cytochrome P450 2C19 (P33261 whole entry): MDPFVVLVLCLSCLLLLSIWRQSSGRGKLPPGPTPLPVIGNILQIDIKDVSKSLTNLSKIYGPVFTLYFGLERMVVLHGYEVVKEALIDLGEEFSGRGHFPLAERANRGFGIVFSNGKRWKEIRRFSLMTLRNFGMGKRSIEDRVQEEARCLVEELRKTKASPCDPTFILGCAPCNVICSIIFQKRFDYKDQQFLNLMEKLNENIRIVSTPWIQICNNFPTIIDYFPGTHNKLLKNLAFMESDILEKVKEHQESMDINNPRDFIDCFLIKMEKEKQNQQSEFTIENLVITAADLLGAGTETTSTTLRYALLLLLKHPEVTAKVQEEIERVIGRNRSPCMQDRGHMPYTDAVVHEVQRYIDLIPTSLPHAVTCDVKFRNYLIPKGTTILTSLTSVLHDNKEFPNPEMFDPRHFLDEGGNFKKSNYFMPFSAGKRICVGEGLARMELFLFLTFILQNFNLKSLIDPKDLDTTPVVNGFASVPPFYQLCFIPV
Sequence of Dual specificity tyrosine-phosphorylation-regulated kinase 1B (Q9Y463 whole entry): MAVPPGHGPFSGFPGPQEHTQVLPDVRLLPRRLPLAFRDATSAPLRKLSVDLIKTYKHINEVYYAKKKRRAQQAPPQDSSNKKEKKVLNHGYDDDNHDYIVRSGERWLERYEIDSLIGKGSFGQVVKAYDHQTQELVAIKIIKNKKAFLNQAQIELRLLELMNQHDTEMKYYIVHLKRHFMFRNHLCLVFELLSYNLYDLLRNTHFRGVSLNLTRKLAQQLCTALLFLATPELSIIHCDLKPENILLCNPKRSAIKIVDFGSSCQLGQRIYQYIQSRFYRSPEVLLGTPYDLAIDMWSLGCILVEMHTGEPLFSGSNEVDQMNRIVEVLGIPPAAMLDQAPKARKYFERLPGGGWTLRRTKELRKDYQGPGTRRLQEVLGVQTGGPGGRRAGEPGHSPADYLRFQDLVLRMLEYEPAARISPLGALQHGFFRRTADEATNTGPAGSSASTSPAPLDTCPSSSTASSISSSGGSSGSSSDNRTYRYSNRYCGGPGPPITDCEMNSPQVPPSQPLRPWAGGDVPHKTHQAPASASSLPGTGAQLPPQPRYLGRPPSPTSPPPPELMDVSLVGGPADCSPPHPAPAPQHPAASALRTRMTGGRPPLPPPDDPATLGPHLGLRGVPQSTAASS
Sequence of CYP3A4 (P08684 whole entry): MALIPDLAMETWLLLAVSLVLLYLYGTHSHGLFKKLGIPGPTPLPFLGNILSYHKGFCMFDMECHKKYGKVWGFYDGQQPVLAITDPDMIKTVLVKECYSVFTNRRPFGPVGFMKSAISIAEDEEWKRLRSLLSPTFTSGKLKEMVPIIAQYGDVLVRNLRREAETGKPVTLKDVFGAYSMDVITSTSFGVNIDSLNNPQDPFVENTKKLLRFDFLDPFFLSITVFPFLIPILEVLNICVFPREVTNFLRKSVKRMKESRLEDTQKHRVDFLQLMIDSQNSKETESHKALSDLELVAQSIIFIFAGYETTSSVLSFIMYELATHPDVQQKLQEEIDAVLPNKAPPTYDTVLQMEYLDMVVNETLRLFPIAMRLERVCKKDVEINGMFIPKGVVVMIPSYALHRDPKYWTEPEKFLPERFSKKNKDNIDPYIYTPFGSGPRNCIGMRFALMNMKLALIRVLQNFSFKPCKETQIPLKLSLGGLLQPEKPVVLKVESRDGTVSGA
Sequence of Dual specificity protein kinase CLK1 (P49759 whole entry): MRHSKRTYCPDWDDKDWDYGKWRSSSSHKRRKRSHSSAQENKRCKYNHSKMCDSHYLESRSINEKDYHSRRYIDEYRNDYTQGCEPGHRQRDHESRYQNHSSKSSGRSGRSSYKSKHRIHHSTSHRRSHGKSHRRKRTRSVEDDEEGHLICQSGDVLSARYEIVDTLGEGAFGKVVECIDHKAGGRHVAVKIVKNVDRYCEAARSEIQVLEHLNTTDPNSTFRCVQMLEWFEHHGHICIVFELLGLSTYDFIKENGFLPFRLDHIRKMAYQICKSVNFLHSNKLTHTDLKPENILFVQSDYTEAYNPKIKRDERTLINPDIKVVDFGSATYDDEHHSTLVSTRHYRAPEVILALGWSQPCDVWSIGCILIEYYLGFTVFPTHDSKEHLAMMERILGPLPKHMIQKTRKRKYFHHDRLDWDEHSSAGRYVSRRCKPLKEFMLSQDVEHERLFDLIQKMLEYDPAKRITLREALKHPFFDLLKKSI
Sequence of Dual specificity tyrosine-phosphorylation-regulated kinase 3 (Homo sapiens) (O43781 whole entry): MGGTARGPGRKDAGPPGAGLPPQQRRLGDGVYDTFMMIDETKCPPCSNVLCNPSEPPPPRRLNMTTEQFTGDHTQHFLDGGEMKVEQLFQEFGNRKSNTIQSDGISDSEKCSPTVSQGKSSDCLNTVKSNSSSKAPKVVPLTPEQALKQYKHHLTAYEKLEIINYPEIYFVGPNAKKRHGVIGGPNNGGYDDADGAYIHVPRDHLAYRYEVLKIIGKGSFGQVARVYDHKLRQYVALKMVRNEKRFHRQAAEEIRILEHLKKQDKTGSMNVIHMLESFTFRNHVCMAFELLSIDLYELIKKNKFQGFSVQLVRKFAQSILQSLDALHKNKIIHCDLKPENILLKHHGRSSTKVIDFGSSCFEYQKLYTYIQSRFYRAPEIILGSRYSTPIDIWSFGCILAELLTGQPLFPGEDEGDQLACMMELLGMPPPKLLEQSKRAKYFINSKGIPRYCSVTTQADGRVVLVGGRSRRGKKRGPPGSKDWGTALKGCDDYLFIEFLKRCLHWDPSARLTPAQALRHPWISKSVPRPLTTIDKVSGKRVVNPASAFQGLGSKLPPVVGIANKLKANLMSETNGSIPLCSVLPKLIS
Sequence of CYP2D6 (P10635 whole entry): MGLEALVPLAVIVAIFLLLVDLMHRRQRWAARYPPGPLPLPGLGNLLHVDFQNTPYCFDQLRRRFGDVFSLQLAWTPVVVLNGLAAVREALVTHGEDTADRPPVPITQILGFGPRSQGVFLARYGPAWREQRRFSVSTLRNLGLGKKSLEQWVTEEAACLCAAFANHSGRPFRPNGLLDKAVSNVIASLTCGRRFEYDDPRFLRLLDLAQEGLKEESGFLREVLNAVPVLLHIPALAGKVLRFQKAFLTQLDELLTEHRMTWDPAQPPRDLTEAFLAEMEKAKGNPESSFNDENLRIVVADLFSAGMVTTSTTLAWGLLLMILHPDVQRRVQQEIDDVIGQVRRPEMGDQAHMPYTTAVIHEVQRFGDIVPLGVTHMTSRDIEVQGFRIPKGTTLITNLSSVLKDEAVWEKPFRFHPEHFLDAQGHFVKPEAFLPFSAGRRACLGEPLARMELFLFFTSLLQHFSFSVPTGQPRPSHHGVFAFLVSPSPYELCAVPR

Cc1ccc2c(-c3ccc4ncnc(N[C@H](CO)c5ccccc5)c4c3)c[nH]c2n1
Activity [1]: Non-Toxic | Activity (HEK-293T [2]): Non-Toxic | Activity [3]: Non-Toxic | Activity (HEK-293T [4]): Toxic | concentration at 4 h [5]: 254 ng/mL | Activity [6]: Non-Toxic | Activity [7]: Non-Toxic | Activity (SH-SY5Y [8]): Active | inhibition at 40 min, 10 µM (CYP3A4): 63.3% | Activity (Mus musculus [9]): Active | Activity (Mus musculus [10]): Active | concentration at 6 h [11]: 118 ng/mL | Activity (Mus musculus [12]): Active | IC50 [13]: 38.9 nM | IC50 [14]: 1.68 nM | concentration at 2 h [15]: 141 ng/mL | Activity [16]: Non-Toxic | MRT inf [17]: 4.49 h | IC50 (Cytochrome P450 2C19): 1030 nM | Activity (Mus musculus [18]): Active | inhibition at 40 min, 10 µM (CYP2D6): 65.8% | IC50 [19]: 1.02 nM | inhibition [20]: 98.1% | Activity (SH-SY5Y [21]): inactive | Activity [22]: Non-Toxic | half-life [23]: 2.95 h | fraction unbound at 5 h, 1 µM [24]: 0.0033 | Activity [25]: Non-Toxic | Vd [26]: 5.82 L/kg | inhibition [27]: 113% | Activity [28]: Non-Toxic | MRT inf [29]: 5.98 h | inhibition at 40 min, 10 µM (CYP1A2): 61.9%
